Reference: publication PMC9848257, “Design and synthesis of novel rigid dibenzo[b,f]azepines through ring closure technique as promising anticancer candidates against leukaemia and acting as selective topoisomerase II inhibitors and DNA intercalators” (Journal of Enzyme Inhibition and Medicinal Chemistry, 2023)

Legend:
[1] = system: HOP-92; experiment: NCI-60 one-dose screen, HOP-92; type: cell-based; settings: Homo sapiens; HOP-92, non-small cell lung cancer; single dose 10 μM; read-out: Growth inhibition %
Description: (§1) Anti-proliferative effects of the counterparts 4a–g and 5a–g were screened against 60 human cancer cell lines, following the Developmental Therapeutics Program protocol, National Cancer Institute[35].
(§2) The anti-tumour activity of the fourteen synthesised congeners was investigated at the NCI against a panel of 60 cancer cell lines (NCI-60 Cell One-Dose Screen). The tested dibenzo[b,f]azepine derivatives were screened at a single dose level (10 μM), Table 1.

[2] = system: NCI-H522; experiment: NCI-60 one-dose screen, NCI-H522; type: cell-based; settings: Homo sapiens; NCI-H522, non-small cell lung cancer; single dose 10 μM; read-out: Growth inhibition %
Description: as §1, §2

[3] = system: HL-60(TB); experiment: NCI-60 one-dose screen, HL-60(TB); type: cell-based; settings: Homo sapiens, leukaemia, single dose 10 μM, read-out: Growth inhibition %
Description: as §1, §2

[4] = system: KM12; experiment: NCI-60 one-dose screen, KM12; type: cell-based; settings: Homo sapiens; KM12, colon cancer; single dose 10 μM; read-out: Growth inhibition %
Description: as §1, §2

[5] = system: HT29; experiment: NCI-60 one-dose screen, HT29; type: cell-based; settings: Homo sapiens, HT-29; HT29, colon cancer; single dose 10 μM; read-out: Growth inhibition %
Description: as §1, §2

[6] = system: SK-MEL-5; experiment: NCI-60 one-dose screen, SK-MEL-5; type: cell-based; settings: Homo sapiens; SK-MEL-5, melanoma; single dose 10 μM; read-out: Growth inhibition %
Description: as §1, §2

[7] = system: SNB-19; experiment: NCI-60 one-dose screen, SNB-19; type: cell-based; settings: Homo sapiens; SNB-19, CNS cancer; single dose 10 μM; read-out: Growth inhibition %
Description: as §1, §2

[8] = system: SR; experiment: NCI-60 one-dose screen, SR; type: cell-based; settings: Homo sapiens, leukaemia, single dose 10 μM, read-out: Growth inhibition %
Description: as §1, §2

[9] = system: HCT-116; experiment: NCI-60 one-dose screen, HCT-116; type: cell-based; settings: Homo sapiens; HCT-116, colon cancer; single dose 10 μM; read-out: Growth inhibition %
Description: as §1, §2

[10] = system: RPMI-8226; experiment: NCI-60 one-dose screen, RPMI-8226; type: cell-based; settings: Homo sapiens; RPMI-8226, leukaemia; single dose 10 μM; read-out: Growth inhibition %
Description: as §1, §2

[11] = system: SF-295; experiment: NCI-60 one-dose screen, SF-295; type: cell-based; settings: Homo sapiens; SF-295, CNS cancer; single dose 10 μM; read-out: Growth inhibition %
Description: as §1, §2

[12] = system: NCI-H226; experiment: NCI-60 one-dose screen, NCI-H226; type: cell-based; settings: Homo sapiens; NCI-H226, non-small cell lung cancer; single dose 10 μM; read-out: Growth inhibition %
Description: as §1, §2

[13] = system: DU-145; experiment: NCI-60 one-dose screen, DU-145; type: cell-based; settings: Homo sapiens; DU-145, prostate cancer; single dose 10 μM; read-out: Growth inhibition %
Description: as §1, §2

[14] = system: MOLT-4; experiment: NCI-60 one-dose screen, MOLT-4; type: cell-based; settings: Homo sapiens; MOLT-4, leukaemia; single dose 10 μM; read-out: Growth inhibition %
Description: as §1, §2

[15] = system: OVCAR-8; experiment: NCI-60 one-dose screen, OVCAR-8; type: cell-based; settings: Homo sapiens; OVCAR-8, ovarian cancer; single dose 10 μM; read-out: Growth inhibition %
Description: as §1, §2

[16] = system: EKVX; experiment: NCI-60 one-dose screen, EKVX; type: cell-based; settings: Homo sapiens, non-small cell lung cancer, single dose 10 μM, read-out: Growth inhibition %
Description: as §1, §2

[17] = system: MDA-MB-435; experiment: NCI-60 one-dose screen, MDA-MB-435; type: cell-based; settings: Homo sapiens; MDA-MB-435, melanoma; single dose 10 μM; read-out: Growth inhibition %
Description: as §1, §2

[18] = system: CCRF-CEM; experiment: NCI-60 one-dose screen, CCRF-CEM; type: cell-based; settings: Homo sapiens, leukaemia, single dose 10 μM, read-out: Growth inhibition %
Description: as §1, §2

[19] = system: TK-10; experiment: NCI-60 one-dose screen, TK-10; type: cell-based; settings: Homo sapiens; TK-10, renal cancer; single dose 10 μM; read-out: Growth inhibition %
Description: as §1, §2

[20] = system: COLO 205; experiment: NCI-60 one-dose screen, COLO 205; type: cell-based; settings: Homo sapiens; COLO 205, colon cancer; single dose 10 μM; read-out: Growth inhibition %
Description: as §1, §2

[21] = system: SW-620; experiment: NCI-60 one-dose screen, SW-620; type: cell-based; settings: Homo sapiens; SW-620, colon cancer; single dose 10 μM; read-out: Growth inhibition %
Description: as §1, §2

[22] = system: MDA-MB-231-ATCC; experiment: NCI-60 one-dose screen, MDA-MB-231-ATCC; type: cell-based; settings: Homo sapiens, breast cancer, single dose 10 μM, read-out: Growth inhibition %
Description: as §1, §2

[23] = system: K-562; experiment: NCI-60 one-dose screen, K-562; type: cell-based; settings: Homo sapiens, K562; K-562, leukaemia; single dose 10 μM; read-out: Growth inhibition %
Description: as §1, §2

[24] = system: OVCAR-4; experiment: NCI-60 one-dose screen, OVCAR-4; type: cell-based; settings: Homo sapiens; OVCAR-4, ovarian cancer; single dose 10 μM; read-out: Growth inhibition %
Description: as §1, §2

[25] = system: SK-OV-3; experiment: NCI-60 one-dose screen, SK-OV-3; type: cell-based; settings: Homo sapiens; SK-OV-3, ovarian cancer; single dose 10 μM; read-out: Growth inhibition %
Description: as §1, §2

[26] = system: UACC-62; experiment: NCI-60 one-dose screen, UACC-62; type: cell-based; settings: Homo sapiens; UACC-62, melanoma; single dose 10 μM; read-out: Growth inhibition %
Description: as §1, §2

[27] = system: OVCAR-3; experiment: NCI-60 one-dose screen, OVCAR-3; type: cell-based; settings: Homo sapiens; OVCAR-3, ovarian cancer; single dose 10 μM; read-out: Growth inhibition %
Description: as §1, §2

[28] = system: U251; experiment: NCI-60 one-dose screen, U251; type: cell-based; settings: Homo sapiens, U-251; U251, CNS cancer; single dose 10 μM; read-out: Growth inhibition %
Description: as §1, §2

[29] = system: PC-3; experiment: NCI-60 one-dose screen, PC-3; type: cell-based; settings: Homo sapiens; PC-3, prostate cancer; single dose 10 μM; read-out: Growth inhibition %
Description: as §1, §2

[30] = system: HS 578 T; experiment: NCI-60 one-dose screen, HS 578 T; type: cell-based; settings: Homo sapiens, breast cancer, single dose 10 μM, read-out: Growth inhibition %
Description: as §1, §2

[31] = system: UO-31; experiment: NCI-60 one-dose screen, UO-31; type: cell-based; settings: Homo sapiens; UO-31, renal cancer; single dose 10 μM; read-out: Growth inhibition %
Description: as §1, §2

[32] = system: SF-268; experiment: NCI-60 one-dose screen, SF-268; type: cell-based; settings: Homo sapiens; SF-268, CNS cancer; single dose 10 μM; read-out: Growth inhibition %
Description: as §1, §2

[33] = system: SK-MEL-28; experiment: NCI-60 one-dose screen, SK-MEL-28; type: cell-based; settings: Homo sapiens; SK-MEL-28, melanoma; single dose 10 μM; read-out: Growth inhibition %
Description: as §1, §2

[34] = system: A498; experiment: NCI-60 one-dose screen, A498; type: cell-based; settings: Homo sapiens; A498, renal cancer; single dose 10 μM; read-out: Growth inhibition %
Description: as §1, §2

Structure (SMILES) | inhibition at 10 µM [1] [%] | inhibition at 10 µM [2] [%] | inhibition at 10 µM [3] [%] | inhibition at 10 µM [4] [%] | inhibition at 10 µM [5] [%] | inhibition at 10 µM [6] [%] | inhibition at 10 µM [7] [%] | inhibition at 10 µM [8] [%] | inhibition at 10 µM [9] [%] | inhibition at 10 µM [10] [%] | inhibition at 10 µM [11] [%] | melting point [°C] | inhibition at 10 µM [12] [%] | inhibition at 10 µM [13] [%] | inhibition at 10 µM [14] [%] | inhibition at 10 µM [15] [%] | inhibition at 10 µM [16] [%] | inhibition at 10 µM [17] [%] | inhibition at 10 µM [18] [%] | inhibition at 10 µM [19] [%] | also measured
O=C(NNC(=O)N1c2ccccc2C=Cc2ccccc21)c1ccccc1 [Compound 4a, N′-Benzoyl-5H-dibenzo[b,f]azepine-5-carbohydrazide] | < 10 | < 10 | < 10 | < 10 | < 10 | < 10 | < 10 | < 10 | < 10 | < 10 | < 10 | 222 to 224 | < 10 | < 10 | < 10 | < 10 | < 10 | < 10 | < 10 | < 10 | inhibition at 10 µM [20]: < 10%; inhibition at 10 µM [21]: < 10%; inhibition at 10 µM [22]: < 10%; inhibition at 10 µM [23]: < 10%; inhibition at 10 µM [24]: < 10%; inhibition at 10 µM [25]: < 10%; inhibition at 10 µM [26]: < 10%; inhibition at 10 µM [27]: < 10%; inhibition at 10 µM [28]: < 10%; inhibition at 10 µM [29]: < 10%; inhibition at 10 µM [30]: < 10%; inhibition at 10 µM [31]: < 10%; inhibition at 10 µM [32]: < 10%; inhibition at 10 µM [33]: < 10%; inhibition at 10 µM [34]: < 10%
O=C(NNC(=O)N1c2ccccc2C=Cc2ccccc21)c1ccc(Br)cc1 [Compound 4b, N′-(4-Bromobenzoyl)-5H-dibenzo[b,f]azepine-5-carbohydrazide] | < 10 | < 10 | < 10 | < 10 | < 10 | < 10 | < 10 | < 10 | < 10 | < 10 | < 10 | 237 to 239 | < 10 | 19.7 | < 10 | < 10 | < 10 | < 10 | < 10 | < 10 | inhibition at 10 µM [20]: < 10%; inhibition at 10 µM [21]: 11.8%; inhibition at 10 µM [22]: < 10%; inhibition at 10 µM [23]: < 10%; inhibition at 10 µM [24]: < 10%; inhibition at 10 µM [25]: < 10%; inhibition at 10 µM [26]: < 10%; inhibition at 10 µM [27]: < 10%; inhibition at 10 µM [28]: < 10%; inhibition at 10 µM [29]: < 10%; inhibition at 10 µM [30]: < 10%; inhibition at 10 µM [31]: < 10%; inhibition at 10 µM [32]: 15.1%; inhibition at 10 µM [33]: < 10%; inhibition at 10 µM [34]: < 10%
